Data taken from US9260439B2, “Dihydropyrrolopyrimidine derivatives” (PFIZER INC., priority 2014, dated 2016).

Target: truncated PI3Kα (p110α/iSH2 p85α) (Homo sapiens (Human), UniProt P42336)
Experiment: PI3KA_Act fluorescence polarization kinase assay (Ki)
Assay type: biochemical
Settings: 1 mM ATP
Procedure, shortened: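 Ki values result from fitting fluorescence polarization signals to the Morrison equation for tight-binding competitive inhibitors. The detector was GST-Grp1 PH domain with TAMRA-PIP3, read after a 30 min room-temperature reaction of 0.5 nM truncated PI3Kα and 30 μM PIP2 at pH 7.4 in HEPES/NaCl/MgCl2/DTT/CHAPS buffer. Compounds were tested as 12-point 3-fold dilutions from 3 μM.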

Sequence of truncated PI3Kα (p110α/iSH2 p85α) (P42336 whole entry, the tested form may be a part): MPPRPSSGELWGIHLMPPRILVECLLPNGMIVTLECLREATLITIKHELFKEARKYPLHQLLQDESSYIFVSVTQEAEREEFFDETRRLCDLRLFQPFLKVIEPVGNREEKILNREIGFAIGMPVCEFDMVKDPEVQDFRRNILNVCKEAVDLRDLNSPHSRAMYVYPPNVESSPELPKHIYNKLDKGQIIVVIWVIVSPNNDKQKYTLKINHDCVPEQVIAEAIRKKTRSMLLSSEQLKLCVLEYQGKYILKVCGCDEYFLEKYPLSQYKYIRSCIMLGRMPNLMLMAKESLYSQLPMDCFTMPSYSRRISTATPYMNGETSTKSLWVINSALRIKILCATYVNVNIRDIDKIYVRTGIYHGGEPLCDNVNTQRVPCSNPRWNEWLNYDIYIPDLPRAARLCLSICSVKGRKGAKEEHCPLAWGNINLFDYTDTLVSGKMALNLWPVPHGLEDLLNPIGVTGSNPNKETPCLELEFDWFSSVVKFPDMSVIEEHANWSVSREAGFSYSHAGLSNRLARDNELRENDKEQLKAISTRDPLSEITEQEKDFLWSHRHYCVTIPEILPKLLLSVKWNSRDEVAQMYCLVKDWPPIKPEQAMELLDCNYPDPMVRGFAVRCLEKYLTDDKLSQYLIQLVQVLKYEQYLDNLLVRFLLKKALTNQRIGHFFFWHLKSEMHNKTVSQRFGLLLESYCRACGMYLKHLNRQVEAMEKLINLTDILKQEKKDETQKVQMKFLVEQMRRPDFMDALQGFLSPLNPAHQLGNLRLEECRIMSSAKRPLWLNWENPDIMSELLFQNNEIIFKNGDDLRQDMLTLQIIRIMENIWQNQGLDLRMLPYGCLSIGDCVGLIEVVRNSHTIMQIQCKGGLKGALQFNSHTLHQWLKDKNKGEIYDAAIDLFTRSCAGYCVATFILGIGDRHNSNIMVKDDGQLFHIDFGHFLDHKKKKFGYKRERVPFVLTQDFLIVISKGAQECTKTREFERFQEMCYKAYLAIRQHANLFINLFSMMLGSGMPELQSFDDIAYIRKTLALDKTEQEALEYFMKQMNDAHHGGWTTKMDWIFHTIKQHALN

Row | Structure (SMILES) | PI3KA_Act Ki [nM]
1 | C[C@H](O)C(=O)N1CC[C@](C)(N2CCc3c(-c4cnc(N)nc4)nc(N4CCOCC4)nc32)C1 [Example 268, (2S)-1-{(3S)-3-[4-(2-aminopyrimidin-5-yl)-2-(morpholin-4-yl)-5,6-dihydro-7H-pyrrolo[2,3-d]pyrimidin-7-yl]-3-methylpyrrolidin-1-yl}-2-hydroxypropan-1-one] | 0.100
2 | C[C@@H](O)C(=O)N1CC[C@@](C)(N2CCc3c(-c4cnc(N)nc4)nc(N4CCOCC4)nc32)C1 [Example 269, (2R)-1-{(3R)-3-[4-(2-aminopyrimidin-5-yl)-2-(morpholin-4-yl)-5,6-dihydro-7H-pyrrolo[2,3-d]pyrimidin-7-yl]-3-methylpyrrolidin-1-yl}-2-hydroxypropan-1-one] | 0.222
3 | C[C@H](O)C(=O)N1CC[C@@](C)(N2CCc3c(-c4cnc(N)nc4)nc(N4CCOCC4)nc32)C1 [Example 270, (2S)-1-{(3R)-3-[4-(2-aminopyrimidin-5-yl)-2-(morpholin-4-yl)-5,6-dihydro-7H-pyrrolo[2,3-d]pyrimidin-7-yl]-3-methylpyrrolidin-1-yl}-2-hydroxypropan-1-one] | 0.074
4 | CC(C)[C@@H](O)C(=O)N1CC[C@](C)(N2CCc3c(-c4cnc(N)nc4)nc(N4CCOCC4)nc32)C1 [Example 271, (2R)-1-{(3S)-3-[4-(2-aminopyrimidin-5-yl)-2-(morpholin-4-yl)-5,6-dihydro-7H-pyrrolo[2,3-d]pyrimidin-7-yl]-3-methylpyrrolidin-1-yl}-2-hydroxy-3-methylbutan-1-one] | 0.016
5 | CC(C)[C@H](O)C(=O)N1CC[C@](C)(N2CCc3c(-c4cnc(N)nc4)nc(N4CCOCC4)nc32)C1 [Example 272, (2S)-1-{(3S)-3-[4-(2-aminopyrimidin-5-yl)-2-(morpholin-4-yl)-5,6-dihydro-7H-pyrrolo[2,3-d]pyrimidin-7-yl]-3-methylpyrrolidin-1-yl}-2-hydroxy-3-methylbutan-1-one] | 0.022
6 | CC(C)(O)C(=O)N1CC[C@](C)(N2CCc3c(-c4cnc(N)nc4)nc(N4CCOCC4)nc32)C1 [Example 275, 1-{(3S)-3-[4-(2-aminopyrimidin-5-yl)-2-(morpholin-4-yl)-5,6-dihydro-7H-pyrrolo[2,3-d]pyrimidin-7-yl]-3-methylpyrrolidin-1-yl}-2-hydroxy-2-methylpropan-1-one] | 0.030
7 | CC(C)(O)CN1CC[C@@](C)(N2CCc3c(-c4cnc(N)nc4)nc(N4CCOCC4)nc32)C1 [Example 276, 1-{(3R)-3-[4-(2-aminopyrimidin-5-yl)-2-(morpholin-4-yl)-5,6-dihydro-7H-pyrrolo[2,3-d]pyrimidin-7-yl]-3-methylpyrrolidin-1-yl}-2-methylpropan-2-ol] | 0.182
8 | COC(C)(C)C(=O)N1CC[C@](C)(N2CCc3c(-c4cnc(N)nc4)nc(N4CCOCC4)nc32)C1 [Example 278, 1-{(3S)-3-[4-(2-aminopyrimidin-5-yl)-2-(morpholin-4-yl)-5,6-dihydro-7H-pyrrolo[2,3-d]pyrimidin-7-yl]-3-methylpyrrolidin-1-yl}-2-methoxy-2-methylpropan-1-one] | <0.018
9 | COCC(=O)N1CC[C@](C)(N2CCc3c(-c4cnc(N)nc4)nc(N4CCOCC4)nc32)C1 [Example 279, 1-{(3S)-3-[4-(2-aminopyrimidin-5-yl)-2-(morpholin-4-yl)-5,6-dihydro-7H-pyrrolo[2,3-d]pyrimidin-7-yl]-3-methylpyrrolidin-1-yl}-2-methoxyethanone] | 0.027
10 | COCC(=O)N1CC[C@@](C)(N2CCc3c(-c4cnc(N)nc4)nc(N4CCOCC4)nc32)C1 [Example 280, 1-{(3R)-3-[4-(2-aminopyrimidin-5-yl)-2-(morpholin-4-yl)-5,6-dihydro-7H-pyrrolo[2,3-d]pyrimidin-7-yl]-3-methylpyrrolidin-1-yl}-2-methoxyethanone] | 0.154
11 | CC(C)(N)CC(=O)N1CC[C@](C)(N2CCc3c(-c4cnc(N)nc4)nc(N4CCOCC4)nc32)C1.Cl [Example 281, 3-amino-1-{(3S)-3-[4-(2-aminopyrimidin-5-yl)-2-(morpholin-4-yl)-5,6-dihydro-7H-pyrrolo[2,3-d]pyrimidin-7-yl]-3-methylpyrrolidin-1-yl}-3-methylbutan-1-one hydrochloride] | 0.024
12 | CC(C)(N)C(=O)N1CC[C@@H](N2CCc3c(-c4cnc(N)nc4)nc(N4CCOCC4)nc32)C1.Cl [Example 282, 2-amino-1-{(3R)-3-[4-(2-aminopyrimidin-5-yl)-2-(morpholin-4-yl)-5,6-dihydro-7H-pyrrolo[2,3-d]pyrimidin-7-yl]pyrrolidin-1-yl}-2-methylpropan-1-one hydrochloride] | 4.040
13 | CC(C)(N)C(=O)N1CC[C@H](N2CCc3c(-c4cnc(N)nc4)nc(N4CCOCC4)nc32)C1.Cl [Example 283, 2-amino-1-{(3S)-3-[4-(2-aminopyrimidin-5-yl)-2-(morpholin-4-yl)-5,6-dihydro-7H-pyrrolo[2,3-d]pyrimidin-7-yl]pyrrolidin-1-yl}-2-methylpropan-1-one hydrochloride] | 0.208
14 | CC[C@@]1(N2CCc3c(-c4cnc(N)nc4)nc(N4CCOCC4)nc32)CCN(C(=O)C(C)(C)N)C1.Cl [Example 284, 2-amino-1-{(3R)-3-[4-(2-aminopyrimidin-5-yl)-2-(morpholin-4-yl)-5,6-dihydro-7H-pyrrolo[2,3-d]pyrimidin-7-yl]-3-ethylpyrrolidin-1-yl}-2-methylpropan-1-one hydrochloride] | 0.368
15 | CC[C@]1(N2CCc3c(-c4cnc(N)nc4)nc(N4CCOCC4)nc32)CCN(C(=O)C(C)(C)N)C1.Cl [Example 285, 2-amino-1-{(3S)-3-[4-(2-aminopyrimidin-5-yl)-2-(morpholin-4-yl)-5,6-dihydro-7H-pyrrolo[2,3-d]pyrimidin-7-yl]-3-ethylpyrrolidin-1-yl}-2-methylpropan-1-one hydrochloride] | 0.089
16 | CC(C)[C@@H](N)C(=O)N1CC[C@@H](N2CCc3c(-c4cnc(N)nc4)nc(N4CCOCC4)nc32)C1.Cl [Example 286, (2R)-2-amino-1-{(3R)-3-[4-(2-aminopyrimidin-5-yl)-2-(morpholin-4-yl)-5,6-dihydro-7H-pyrrolo[2,3-d]pyrimidin-7-yl]pyrrolidin-1-yl}-3-methylbutan-1-one hydrochloride] | 5.810
17 | CC(C)[C@@H](N)C(=O)N1CC[C@H](N2CCc3c(-c4cnc(N)nc4)nc(N4CCOCC4)nc32)C1.Cl [Example 287, (2R)-2-amino-1-{(3S)-3-[4-(2-aminopyrimidin-5-yl)-2-(morpholin-4-yl)-5,6-dihydro-7H-pyrrolo[2,3-d]pyrimidin-7-yl]pyrrolidin-1-yl}-3-methylbutan-1-one hydrochloride] | 0.462
18 | CC(C)[C@H](N)C(=O)N1CC[C@](C)(N2CCc3c(-c4cnc(N)nc4)nc(N4CCOCC4)nc32)C1.Cl [Example 288, (2S)-2-amino-1-{(3S)-3-[4-(2-aminopyrimidin-5-yl)-2-(morpholin-4-yl)-5,6-dihydro-7H-pyrrolo[2,3-d]pyrimidin-7-yl]-3-methylpyrrolidin-1-yl}-3-methylbutan-1-one hydrochloride] | 0.141
19 | CC(C)(N)C(=O)N1CC[C@@](C)(N2CCc3c(-c4cnc(N)nc4)nc(N4CCOCC4)nc32)C1.Cl [Example 289, 2-amino-1-{(3R)-3-[4-(2-aminopyrimidin-5-yl)-2-(morpholin-4-yl)-5,6-dihydro-7H-pyrrolo[2,3-d]pyrimidin-7-yl]-3-methylpyrrolidin-1-yl}-2-methylpropan-1-one hydrochloride] | 0.075
20 | CCC(C)(N)C(=O)N1CC[C@](C)(N2CCc3c(-c4cnc(N)nc4)nc(N4CCOCC4)nc32)C1.Cl (stereo partly drawn) [Example 290, 2-amino-1-{(3S)-3-[4-(2-aminopyrimidin-5-yl)-2-(morpholin-4-yl)-5,6-dihydro-7H-pyrrolo[2,3-d]pyrimidin-7-yl]-3-methylpyrrolidin-1-yl}-2-methylbutan-1-one hydrochloride] | <0.018
21 | C[C@]1(N2CCc3c(-c4cnc(N)nc4)nc(N4CCOCC4)nc32)CCN(C(=O)[C@H](N)CF)C1.Cl [Example 292, (2S)-2-amino-1-{(3S)-3-[4-(2-aminopyrimidin-5-yl)-2-(morpholin-4-yl)-5,6-dihydro-7H-pyrrolo[2,3-d]pyrimidin-7-yl]-3-methylpyrrolidin-1-yl}-3-fluoropropan-1-one hydrochloride] | <0.018
22 | C[C@]1(N2CCc3c(-c4cnc(N)nc4)nc(N4CCOCC4)nc32)CCN(C(=O)[C@@H](N)CF)C1.Cl [Example 293, (2R)-2-amino-1-{(3S)-3-[4-(2-aminopyrimidin-5-yl)-2-(morpholin-4-yl)-5,6-dihydro-7H-pyrrolo[2,3-d]pyrimidin-7-yl]-3-methylpyrrolidin-1-yl}-3-fluoropropan-1-one hydrochloride] | 0.086
23 | CC(N)(CF)C(=O)N1CC[C@](C)(N2CCc3c(-c4cnc(N)nc4)nc(N4CCOCC4)nc32)C1.Cl (stereo partly drawn) [Example 294, 2-amino-1-{(3S)-3-[4-(2-aminopyrimidin-5-yl)-2-(morpholin-4-yl)-5,6-dihydro-7H-pyrrolo[2,3-d]pyrimidin-7-yl]-3-methylpyrrolidin-1-yl}-3-fluoro-2-methylpropan-1-one hydrochloride] | <0.018
24 | C[C@]1(N2CCc3c(-c4cnc(N)nc4)nc(N4CCOCC4)nc32)CCN(C(=O)[C@@H](N)C2CC2)C1.Cl [Example 296, (2S)-2-amino-1-{(3S)-3-[4-(2-aminopyrimidin-5-yl)-2-(morpholin-4-yl)-5,6-dihydro-7H-pyrrolo[2,3-d]pyrimidin-7-yl]-3-methylpyrrolidin-1-yl}-2-cyclopropylethanone hydrochloride] | <0.018
